From patent US10246429B2, “Vinyl fluoride cyclopropyl fused thiazin-2-amine compounds as beta-secretase inhibitors and methods of use” (AMGEN INC., priority 2015, dated 2019)

Legend:
BACE2 = BACE2 (Homo sapiens (Human), UniProt Q9Y5Z0); assay: In vitro enzymatic BACE2 FRET assay; type: biochemical; details: read-out: IC50 IP (μM) BACE2 Enzyme
Source text: In Vitro Enzymatic BACE1 and BACE2 FRET (Fluorescence Resonance Energy Transfer) Assays (Enzyme Assay Data in Table 1)

Cathepsin D (CatD) = Cathepsin D (CatD) (Homo sapiens (Human), UniProt P07339); assay: CatD assay; type: biochemical; details: read-out: IC50 IP (μM) CatD
Sequence of Cathepsin D (CatD) (P07339 65-412, species assumed): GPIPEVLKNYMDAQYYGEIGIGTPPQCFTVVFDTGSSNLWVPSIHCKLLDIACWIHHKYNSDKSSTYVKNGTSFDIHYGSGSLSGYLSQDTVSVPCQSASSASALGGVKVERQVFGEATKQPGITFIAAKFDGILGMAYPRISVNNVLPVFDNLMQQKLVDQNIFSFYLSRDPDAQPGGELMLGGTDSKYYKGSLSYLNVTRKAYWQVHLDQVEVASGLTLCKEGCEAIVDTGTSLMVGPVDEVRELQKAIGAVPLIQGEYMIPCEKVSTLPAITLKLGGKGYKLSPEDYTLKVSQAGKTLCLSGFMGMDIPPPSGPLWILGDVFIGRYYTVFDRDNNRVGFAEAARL

Sequence of BACE2 (Q9Y5Z0 63-518): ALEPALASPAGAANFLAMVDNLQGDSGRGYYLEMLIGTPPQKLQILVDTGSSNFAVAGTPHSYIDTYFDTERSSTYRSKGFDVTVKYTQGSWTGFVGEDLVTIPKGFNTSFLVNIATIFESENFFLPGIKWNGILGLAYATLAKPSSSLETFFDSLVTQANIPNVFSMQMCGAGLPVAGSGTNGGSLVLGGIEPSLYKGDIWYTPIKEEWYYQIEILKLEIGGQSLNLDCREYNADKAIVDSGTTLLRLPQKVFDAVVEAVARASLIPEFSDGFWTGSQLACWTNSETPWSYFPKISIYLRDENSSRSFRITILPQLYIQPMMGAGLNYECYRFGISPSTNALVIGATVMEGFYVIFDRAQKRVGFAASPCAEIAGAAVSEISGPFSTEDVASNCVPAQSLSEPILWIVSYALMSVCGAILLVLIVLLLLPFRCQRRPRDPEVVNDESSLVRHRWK

Compound	IC50 (BACE2) [µM]	IC50 (Cathepsin D (CatD)) [µM]
C[C@@]1(O)CCN(C(=O)[C@]23C[C@H]2[C@@](C)(c2cc(/C=C(\F)c4ccc(C#N)cn4)ccc2F)N=C(N)S3)C1 (single isomer, unassigned) [Example 310]	0.041	434
COC(=O)[C@]12C[C@H]1[C@@](C)(c1cc(/C=C(\F)c3ccc(Br)cn3)ccc1F)N=C(N)S2 [Example 105, (1S,5S,6S)-methyl 3-amino-5-(5-((Z)-2-(5-bromopyridin-2-yl)-2-fluorovinyl)-2-fluorophenyl)-5-methyl-2-thia-4-azabicyclo[4.1.0]hept-3-ene-1-carboxylate]	0.127	302
COC(=O)[C@]12C[C@H]1[C@@](C)(c1cc(/C=C(\F)c3ccc(Cl)cn3)ccc1F)N=C(N)S2 [Example 111, (1S,5S,6S)-methyl 3-amino-5-(5-((Z)-2-(5-chloropyridin-2-yl)-2-fluorovinyl)-2-fluorophenyl)-5-methyl-2-thia-4-azabicyclo[4.1.0]hept-3-ene-1-carboxylate]	0.102	734
C[C@]1(c2cc(/C=C(\F)c3ccc(Cl)cn3)ccc2F)N=C(N)S[C@@]2(C(=O)N3CCC3)C[C@H]21 [Example 112, ((1S,5S,6S)-3-amino-5-(5-((Z)-2-(5-chloropyridin-2-yl)-2-fluorovinyl)-2-fluorophenyl)-5-methyl-2-thia-4-azabicyclo[4.1.0]hept-3-en-1-yl)(azetidin-1-yl)methanone]	–	97.6
C[C@]1(c2cc(/C=C(\F)c3ccc(Cl)cn3)ccc2F)N=C(N)S[C@@]2(CO)C[C@H]21 [Example 113, ((1S,5S,6S)-3-amino-5-(5-((Z)-2-(5-chloropyridin-2-yl)-2-fluorovinyl)-2-fluorophenyl)-5-methyl-2-thia-4-azabicyclo[4.1.0]hept-3-en-1-yl)methanol]	0.0339	400
CC(O)CCNC(=O)[C@]12C[C@H]1[C@@](C)(c1cc(/C=C(\F)c3ccc(Cl)cn3)ccc1F)N=C(N)S2 (stereo partly drawn) [Example 115, (1S,5S,6S)-3-amino-5-(5-((Z)-2-(5-chloropyridin-2-yl)-2-fluorovinyl)-2-fluorophenyl)-N-(3-hydroxybutyl)-5-methyl-2-thia-4-azabicyclo[4.1.0]hept-3-ene-1-carboxamide]	–	57.6
COC[C@@H]1CCCN1C(=O)[C@]12C[C@H]1[C@@](C)(c1cc(/C=C(\F)c3ccc(Cl)cn3)ccc1F)N=C(N)S2 [Example 117, ((1S,5S,6S)-3-amino-5-(5-((Z)-2-(5-chloropyridin-2-yl)-2-fluorovinyl)-2-fluorophenyl)-5-methyl-2-thia-4-azabicyclo[4.1.0]hept-3-en-1-yl)((S)-2-(methoxymethyl)pyrrolidin-1-yl)methanone]	0.0209	166
C[C@]1(c2cc(/C=C(\F)c3ccc(C#N)cn3)ccc2F)N=C(N)S[C@@]2(C(=O)NC3CC3)C[C@H]21 [Example 121, (1S,5S,6S)-3-amino-5-(5-((Z)-2-(5-cyanopyridin-2-yl)-2-fluorovinyl)-2-fluorophenyl)-N-cyclopropyl-5-methyl-2-thia-4-azabicyclo[4.1.0]hept-3-ene-1-carboxamide]	0.164	52.9
CNC(=O)[C@]12C[C@H]1[C@@](C)(c1cc(/C=C(\F)c3cnc(OCC(F)(F)C(F)F)cn3)ccc1F)N=C(N)S2 [Example 161, (1S,5S,6S)-3-amino-5-(2-fluoro-5-((Z)-2-fluoro-2-(5-(2,2,3,3-tetrafluoropropoxy)pyrazin-2-yl)vinyl)phenyl)-N,5-dimethyl-2-thia-4-azabicyclo[4.1.0]hept-3-ene-1-carboxamide]	0.755	–
C#Cc1cnc(/C(F)=C/c2ccc(F)c([C@@]3(C)N=C(N)S[C@@]4(C(=O)NC)C[C@H]43)c2)cn1 [Example 167, (1S,5S,6S)-3-amino-5-(5-((Z)-2-(5-ethynylpyrazin-2-yl)-2-fluorovinyl)-2-fluorophenyl)-N,5-dimethyl-2-thia-4-azabicyclo[4.1.0]hept-3-ene-1-carboxamide]	0.16	–
